Columns and labels:
Assay in all cases: relative viability (nuclei count vs DMSO), 5 days (fraction); higher = more cells survive
[1] = compound: CO[C@@H]1[C@H](N(C)C(=O)c2ccccc2)C[C@H]2O[C@]1(C)n1c3ccccc3c3c4c(c5c6ccccc6n2c5c31)C(=O)NC4 [Midostaurin] + Cc1nc(NC(=O)N2CCC[C@H]2C(N)=O)sc1-c1ccnc(C(C)(C)C(F)(F)F)c1 [Alpelisib] (partner 2 µM)
Method in brief: (§1)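 One day after seeding in 1536-well plates, lung cancer cell lines were dosed by pin tool. Dosing was either single-drug or a fixed anchor-drug dose plus five library-drug doses (not always all listed) in √10 steps. After 5 days, nuclei were stained in one fix-and-stain step and counted on 4× images, and relative viability is the nuclei count of treated wells over that of vehicle wells, given as the median of duplicate plates.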

[2] = compound: COc1cc(-c2nn([C@H]3CC[C@H](N4CCN(C(C)=O)CC4)CC3)c3ncnc(N)c23)ccc1NC(=O)c1cc2ccccc2n1C + CC(=O)c1c(C)c2cnc(Nc3ccc(N4CCNCC4)cn3)nc2n(C2CCCC2)c1=O [Palbociclib] (partner 0.5 µM)
Method in brief: as §1

[3] = compound: COc1cc(-c2nn([C@H]3CC[C@H](N4CCN(C(C)=O)CC4)CC3)c3ncnc(N)c23)ccc1NC(=O)c1cc2ccccc2n1C + COc1cc2c(Oc3ccc(NC(=O)C4(C(=O)Nc5ccc(F)cc5)CC4)cc3F)ccnc2cc1OCCCN1CCOCC1 [Foretinib] (partner 0.25 µM)
Method in brief: as §1

[4] = compound: CO[C@@H]1[C@H](N(C)C(=O)c2ccccc2)C[C@H]2O[C@]1(C)n1c3ccccc3c3c4c(c5c6ccccc6n2c5c31)C(=O)NC4 [Midostaurin] + Cc1nc(Nc2ncc(C(=O)Nc3c(C)cccc3Cl)s2)cc(N2CCN(CCO)CC2)n1 [Dasatinib] (partner 0.075 µM)
Method in brief: as §1

[5] = compound: COc1cc(-c2nn([C@H]3CC[C@H](N4CCN(C(C)=O)CC4)CC3)c3ncnc(N)c23)ccc1NC(=O)c1cc2ccccc2n1C + C[C@@H](Oc1cc(-c2cnn(C3CCNCC3)c2)cnc1N)c1c(Cl)ccc(F)c1Cl [Crizotinib] (partner 1 µM)
Method in brief: as §1

Cell Line	relative viability ([1]; first compound 0.01 µM)	relative viability ([1]; first compound 0.03162 µM)	relative viability ([1]; first compound 0.1 µM)	relative viability ([1]; first compound 0.3162 µM)	relative viability ([2]; first compound 0.0128 µM)	relative viability ([2]; first compound 0.04048 µM)	relative viability ([2]; first compound 0.128 µM)	relative viability ([2]; first compound 1.28 µM)	relative viability ([3]; first compound 0.0128 µM)	relative viability ([3]; first compound 0.04048 µM)	relative viability ([3]; first compound 0.128 µM)	relative viability ([3]; first compound 1.28 µM)	relative viability ([4]; first compound 0.01 µM)	relative viability ([4]; first compound 0.03162 µM)	relative viability ([4]; first compound 0.1 µM)	relative viability ([4]; first compound 0.3162 µM)	relative viability ([5]; first compound 0.0128 µM)	relative viability ([5]; first compound 0.04048 µM)	relative viability ([5]; first compound 0.128 µM)	relative viability ([5]; first compound 1.28 µM)
201T	1.04	1.01	1.02	1.08	0.353	0.402	0.337	0.294	1.06	1.19	0.859	0.594	0.557	0.533	0.562	0.558	1.02	1.05	0.941	0.815
A549	0.742	0.705	0.679	0.265					0.927	0.991	0.969	0.935					0.854	1.02	0.686	0.719
A-427	1.05	0.996	1.07	0.982	0.544	0.554	0.551	0.521	1.03		0.988	0.884	0.726	0.63	0.607	0.704	1.04	0.771	0.872	0.803
ABC-1	1.05	0.879	0.816	0.897	0.646	0.84	0.391	0.469	0.967	0.953	1.05	0.881	0.512	0.668	0.451	0.504	1.01	0.98	0.87	0.766
BEN	1.03	1.02	0.968	1.06	0.485	0.466	0.435	0.457	0.502	0.642	0.602	0.45	0.371	0.32	0.405	0.379	0.8	0.996	0.756	0.576
CAL-12T	1.28	0.765	0.816	1.09	0.485	0.277	0.459	0.24	1.13	1.06	1.31	1.12	0.446	0.395	0.295	0.239	0.621	0.818	0.581	0.413
COR-L23	0.737	0.659	0.818	0.497	0.324	0.253	0.313	0.24	1.08	1.14	0.894	0.981	0.436	0.455	0.368	0.27	0.59	0.845	0.675	0.602
COR-L 105	1.08	0.823	0.778	1.05	0.388	0.474	0.4	0.302	1.04	1.34	0.994	0.598	0.351	0.396	0.385	0.285	0.771	0.864	0.594	0.678
Calu-6	0.944	0.913	0.914	0.766					0.905	0.813	0.823	0.659					0.692	0.806	0.609	0.596
ChaGo-K-1					0.925	0.985	0.873	0.668	0.994	0.897	0.892	0.742	0.509	0.584	0.541	0.689	1.17	1.13	1.03	0.882
EBC-1	0.871	0.735	0.746	0.605					0.104	0.0846	0.126	0.112					0.193	0.198	0.24	0.185
EKVX	0.968	0.813	0.814	0.824	0.383	0.47	0.357	0.271	0.881	0.755	0.744	0.575	0.696	0.598	0.468	0.456	0.986	1.04	0.755	0.359
EMC-BAC-2	0.765	0.717	0.586	0.61	0.551	0.582	0.528	0.514	1.06	1.05	0.968	0.617	0.358	0.372	0.273	0.248	0.759	0.848	0.731	0.532
EPLC-272H	0.74	0.909	1.05	1.05	0.352	0.327	0.337	0.301	0.78		0.705	0.37	0.381		0.422	0.351	0.974	0.924	0.984	0.701
H3255	0.724	0.7	0.698	0.7	0.324	0.316	0.349	0.318	0.761	0.813	0.849	0.557	0.346	0.29	0.37	0.354	0.938	0.981	0.81	0.468
HARA	0.794	0.795	0.724	0.864	0.268	0.241	0.246	0.185	1.07	0.846	0.687	0.332	0.262	0.22	0.269	0.283	1.02	1.1	0.914	0.623

— the supplement of paper PMC10307832
